System: S. aureus strain ALC6094
Assay: Murine model of subcutaneous infection (abscess), IPTG induction of MazFsa
Assay type: in vivo, Balb/C female mice
Settings: for Log10 CFU/abscess: sacrifice day 4, n = 9
Source text: A murine model of subcutaneous infections (abscess) was used. Such models are well-established as methods to screen for in vivo activity to affect infection processes (Tamber et al. 2010. Infect. Immun. 78:3637-3646).
In the present experiments, a bacterial strain ALC6094, which is a derivative of S. aureus strain Newman was used. This strain contains a chromosomal copy of the T7 polymerase gene and the plasmid pG164::mazFsa, which is a shuttle plasmid with an IPTG-inducible T7 promoter driving MazFsa expression. Mice were challenged with 2×10^7 CFU of bacteria via subcutaneous (s.q.) injection and mixed with 1 mM IPTG immediately before injection. After injection, half of the IPTG-treated animals received two saline injections daily while the remaining half were injected with 1 mM IPTG (s.q.) daily for 2 days. All animals were sacrificed on day 4, including untreated control groups receiving no IPTG. […] Thus, drugs that disrupt the MazEF complex would be novel compounds for use in treating S. aureus bacterial infections.
Balb/C female mice (20-22 grams) were used to assess the utility of disrupting MazEFsa activity in vivo as a potential method for testing for drug efficacy. The mice were infected subcutaneously with 200 μl of 1.5×10^8 CFU/ml of bacteria. The bacterial strain used was ALC6094, which is a derivative of S. aureus strain Newman containing a chromosomal copy of the T7 polymerase gene and the plasmid pG164::mazFsa, which is a shuttle plasmid with an IPTG-inducible T7 promoter driving MazFsa expression. Control mice were infected with the bacteria but received no further injections. Two treatment groups were tested: 1) mice injected with ALC6094 that was mixed with IPTG immediately before injection (1 ml of a 5 mM solution of IPTG); and 2) mice injected with ALC6094 mixed with IPTG and then given daily IPTG injections for two subsequent days. Animal were sacrificed on day 4 after injection. Only mice receiving saline control developed visible abscesses by day 3, while those animals receiving IPTG had visible erythematous injection sites.

CC(C)S[C@@H]1O[C@H](CO)[C@H](O)[C@H](O)[C@H]1O [IPTG]
Log10 CFU/abscess (ALC6094 mixed with IPTG immediately before s.q. injection): 6.57 ± 0.83 Log10 CFU/abscess
Log10 CFU/abscess (ALC6094 mixed with IPTG plus daily IPTG injections for two subsequent days): 6.59 ± 0.95 Log10 CFU/abscess
abscess size vs. no IPTG controls (mice receiving IPTG induction for MazFsa): smaller abscess sizes

Reference: patent publication US20130295017A1, “METHODS FOR SCREENING ANTIBIOTIC COMPOUNDS” (priority 2010, published 2013)
